# In ChEMBL document CHEMBL1158270, “Triangulynes A-H and trangulynic acid, new cytotxic polyacetylenes from the marine sponge Pellina triangulata” (1996):
# Legend:
# Format in all cases: functional
# Malme-3M = test: Cytotoxicity against human MALME-3M cells
# M14 = test: Cytotoxicity against human M14 cells
# SK-MEL-2 = test: Cytotoxicity against human SK-MEL-2 cells
# SK-MEL-5 = test: Cytotoxicity against human SK-MEL-5 cells
# UACC-257 = test: Cytotoxicity against human UACC257 cells
# IGROV-1 = test: Cytotoxicity against human IGROV1 cells
# OVCAR-3 = test: Cytotoxicity against human OVCAR-3 cells
# OVCAR-4 = test: Cytotoxicity against human OVCAR4 cells
# OVCAR-5 = test: Cytotoxicity against human OVCAR5 cells
# SK-OV-3 = test: Cytotoxicity against human SKOV3 cells
# A498 = test: Cytotoxicity against human A498 cells
# ACHN = test: Cytotoxicity against human ACHN cells
# RXF 393 = test: Cytotoxicity against human RXF393 cells
# SN12C = test: Cytotoxicity against human SN12C cells
# TK-10 = test: Cytotoxicity against human TK10 cells
# UO-31 = test: Cytotoxicity against human UO31 cells
# DU-145 = test: Cytotoxicity against human DU145 cells
# MDA-MB-231 = test: Cytotoxicity against human MDA-MB-231 cells
# [1] = Cytotoxicity against human Hs 578T cells
# MDA-MB-435 = test: Cytotoxicity against human MDA-MB-435 cells
# MDA-N = test: Cytotoxicity against human MDA-N cells
# BT-549 = test: Cytotoxicity against human BT549 cells
# 786-0 = test: Cytotoxicity against human 786-0 cells
# [2] = read-out: pLC50 (the source's name) (converted)
compound,measurement,setting,value
C#C[C@H](O)/C=C/CCCCCCCCCC/C=C\CCCCCCC[C@H](O)C#CC#CC#CCO [TRIANGULYNE A],LC50,Malme-3M,1910 nM
same,TGI,Malme-3M; read-out: pTGI (converted),646 nM
same,GI50,M14,158 nM
same,LC50,M14,3470 nM
same,TGI,M14; read-out: pTGI (converted),813 nM
same,GI50,SK-MEL-2,251 nM
same,CC50,SK-MEL-2; [2],7760 nM
same,TGI,SK-MEL-2; read-out: pTGI (converted),891 nM
same,GI50,SK-MEL-5,72.4 nM
same,CC50,SK-MEL-5; [2],479 nM
same,TGI,SK-MEL-5; read-out: pTGI (converted),200 nM
same,GI50,UACC-257,513 nM
same,CC50,UACC-257; [2],8130 nM
same,TGI,UACC-257; read-out: pTGI (converted),2090 nM
same,GI50,IGROV-1,490 nM
same,CC50,IGROV-1; [2],8130 nM
same,TGI,IGROV-1; read-out: pTGI (converted),1820 nM
same,GI50,OVCAR-3,372 nM
same,CC50,OVCAR-3; [2],5250 nM
same,TGI,OVCAR-3; read-out: pTGI (converted),1510 nM
same,GI50,OVCAR-4,851 nM
same,CC50,OVCAR-4; [2],38000 nM
same,TGI,OVCAR-4; read-out: pTGI (converted),6310 nM
same,GI50,OVCAR-5,4470 nM
same,CC50,OVCAR-5; [2],34700 nM
same,TGI,OVCAR-5; read-out: pTGI (converted),12000 nM
same,GI50,SK-OV-3,2820 nM
same,CC50,SK-OV-3; [2],37200 nM
same,TGI,SK-OV-3; read-out: pTGI (converted),7940 nM
same,GI50,A498,525 nM
same,CC50,A498; [2],5250 nM
same,TGI,A498; read-out: pTGI (converted),1580 nM
same,GI50,ACHN,776 nM
same,CC50,ACHN; [2],32400 nM
same,TGI,ACHN; read-out: pTGI (converted),7240 nM
same,GI50,RXF 393,339 nM
same,CC50,RXF 393; [2],18200 nM
same,TGI,RXF 393; read-out: pTGI (converted),1290 nM
same,GI50,SN12C,1410 nM
same,CC50,SN12C; [2],32400 nM
same,TGI,SN12C; read-out: pTGI (converted),11000 nM
same,GI50,TK-10,646 nM
same,CC50,TK-10; [2],11000 nM
same,TGI,TK-10; read-out: pTGI (converted),2090 nM
same,GI50,UO-31,1290 nM
same,CC50,UO-31; [2],5500 nM
same,TGI,UO-31; read-out: pTGI (converted),2690 nM
same,GI50,DU-145,1410 nM
same,CC50,DU-145; [2],18200 nM
same,TGI,DU-145; read-out: pTGI (converted),5500 nM
same,GI50,MDA-MB-231,229 nM
same,CC50,MDA-MB-231; [2],9120 nM
same,TGI,MDA-MB-231; read-out: pTGI (converted),603 nM
same,GI50,[1],2400 nM
same,CC50,[1]; [2],57500 nM
same,TGI,[1]; read-out: pTGI (converted),8320 nM
same,GI50,MDA-MB-435,170 nM
same,CC50,MDA-MB-435; [2],4470 nM
same,TGI,MDA-MB-435; read-out: pTGI (converted),832 nM
same,GI50,MDA-N,240 nM
same,CC50,MDA-N; [2],8510 nM
same,TGI,MDA-N; read-out: pTGI (converted),3090 nM
same,GI50,BT-549,794 nM
same,CC50,BT-549; [2],11000 nM
same,TGI,BT-549; read-out: pTGI (converted),2400 nM
same,GI50,786-0,288 nM
same,CC50,786-0; [2],3980 nM
same,TGI,786-0; read-out: pTGI (converted),1100 nM
